The values that follow come from patent publication US9732075B2, “Benzimidazole-proline derivatives” (IDORSIA PHARMACEUTICALS LTD, priority 2012, dated 2017).

In one assay the target is human orexin-2 receptor (Homo sapiens (Human), UniProt O43614). Briefly: In vitro assay: intracellular calcium measurements (FLIPR), antagonistic activity. The format is cell-based. Conditions: CHO cells expressing human orexin-2 receptor, orexin-A agonist, geometric mean, read-out: IC50 Ox2. In outline:
(§1)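 Orexin-A-evoked calcium rise (3 nM final, roughly EC70) was recorded with fluo-4 in recombinant CHO cells, human receptor subtype 1 or 2.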
(Calcium assays in cells follow changes in intracellular calcium, usually with a dye or a luminescent sensor.)

The target of another assay is human orexin-1 receptor (Homo sapiens (Human), UniProt O43613). The description is as above. In kind it is cell-based. The note with it: CHO cells expressing human orexin-1 receptor, orexin-A agonist, geometric mean, read-out: IC50 Ox1. The method, boiled down:
as §1

Sequence of human orexin-1 receptor (O43613 whole entry): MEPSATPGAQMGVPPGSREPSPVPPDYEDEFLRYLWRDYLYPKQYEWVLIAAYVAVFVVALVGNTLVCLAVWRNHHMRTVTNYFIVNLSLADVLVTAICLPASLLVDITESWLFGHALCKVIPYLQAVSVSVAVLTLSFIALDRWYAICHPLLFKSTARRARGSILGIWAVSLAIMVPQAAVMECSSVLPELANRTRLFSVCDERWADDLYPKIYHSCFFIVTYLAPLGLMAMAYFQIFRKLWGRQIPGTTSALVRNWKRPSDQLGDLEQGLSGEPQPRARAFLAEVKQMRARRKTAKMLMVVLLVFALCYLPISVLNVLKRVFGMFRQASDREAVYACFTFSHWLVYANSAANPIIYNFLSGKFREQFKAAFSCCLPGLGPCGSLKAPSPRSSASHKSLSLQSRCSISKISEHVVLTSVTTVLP
Sequence of human orexin-2 receptor (O43614 whole entry): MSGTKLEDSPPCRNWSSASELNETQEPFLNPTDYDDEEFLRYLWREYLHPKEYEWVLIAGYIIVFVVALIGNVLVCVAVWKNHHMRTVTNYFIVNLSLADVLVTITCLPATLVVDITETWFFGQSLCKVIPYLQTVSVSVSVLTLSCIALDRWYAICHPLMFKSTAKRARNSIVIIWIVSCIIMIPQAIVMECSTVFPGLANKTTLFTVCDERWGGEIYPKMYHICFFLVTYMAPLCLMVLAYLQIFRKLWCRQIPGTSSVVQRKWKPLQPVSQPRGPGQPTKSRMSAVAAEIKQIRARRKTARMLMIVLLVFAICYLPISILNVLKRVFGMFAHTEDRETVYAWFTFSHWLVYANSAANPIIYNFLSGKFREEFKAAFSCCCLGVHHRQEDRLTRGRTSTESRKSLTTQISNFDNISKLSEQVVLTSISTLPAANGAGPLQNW

For orientation: IC50 means the concentration at which inhibition is half-maximal. On to `COc1cc2nc([C@]3(C)CCCN3C(=O)c3nc(C)sc3-c3cc(F)cc(F)c3)[nH]c2cc1OC` [Ex. 5.76], for which the concentration for half-maximal inhibition (IC50) on human orexin-2 receptor amounted to 47 nM; at human orexin-1 receptor it was 33 nM.
The matching figures for `C=C1C[C@@H](c2nc3cccc(C)c3[nH]2)N(C(=O)c2cc(OC)ccc2-n2nccn2)C1` [Ex. 6.111]: 14 nM and 272 nM.
The like results for `C=C1CN(C(=O)c2nc(C)sc2-c2ccccc2)C(C)(c2nc3cc(OC)ccc3[nH]2)C1` (racemic) [Ex. 6.154] were, in that order, 38 nM and 32 nM.
For `COc1cccc(-c2ccccc2C(=O)N2CCC[C@@]2(C)c2nc3cc(C)c(C)cc3[nH]2)c1` [Ex. 5.101], the results for the IC50 at human orexin-2 receptor and on human orexin-1 receptor were 54 nM and 59 nM, respectively.
The matching figures for `Cc1cc2[nH]c([C@@H]3[C@@H](C)CCN3C(=O)c3c(-c4ccccc4)ccc(C)c3F)nc2cc1Cl` [Ex. 4.115]: 754 nM and 7 nM.
Consider `CSc1ccc2nc([C@@H]3CCCN3C(=O)c3nc(C)sc3-c3cccc(Cl)c3Cl)[nH]c2c1` [Ex. 1.36], for which the IC50 at human orexin-2 receptor is 27 nM; on human orexin-1 receptor, 109 nM.
The like results for `Cc1cc2[nH]c([C@@H]3[C@@H](C)CCN3C(=O)c3cc(F)ccc3-c3ccccc3)nc2cc1Cl` [Ex. 4.105] were, in that order, 177 nM and 5 nM.
On to `C=C1CN(C(=O)c2nc(C)sc2-c2ccc(OC)cc2)C(C)(c2nc3cc(OC)ccc3[nH]2)C1` (stereo not shown) [Ex. 6.147], for which the IC50 on human orexin-2 receptor was 34 nM; on human orexin-1 receptor, 13 nM.
The like results for `COc1cccc(-c2ccc(C)cc2C(=O)N2CCC[C@@]2(C)c2nc3cc(C(F)(F)F)c(Cl)cc3[nH]2)c1` [Ex. 5.149] were, in that order, 26 nM and 21 nM.
The matching figures for `Cc1cccc(-c2sc(C)nc2C(=O)N2CCC[C@@]2(C)c2nc3ccc(F)c(F)c3[nH]2)c1` [Ex. 5.210]: 27 nM and 3 nM.
The like results for `C=C1C[C@@H](c2nc3cc(C(C)(C)C)ccc3[nH]2)N(C(=O)c2cc(C)c(C)cc2-n2nccn2)C1` [Ex. 6.165] were, in that order, 3 nM and 9 nM.
As for `CSc1ccc2nc([C@@H]3CCCN3C(=O)c3nc(C)sc3-c3cccc(Cl)c3)[nH]c2c1` [Ex. 1.43], the IC50 was 58 nM at human orexin-2 receptor and 97 nM at human orexin-1 receptor.
The matching figures for `COc1ccc2nc([C@@H]3CCCN3C(=O)c3cc(C)ccc3-n3nccn3)[nH]c2c1` [Ex. 1.16]: 5 nM and 245 nM.
The matching figures for `C=C1CN(C(=O)c2cc(Cl)ccc2-n2nccn2)C(C)(c2nc3cc(OC)ccc3[nH]2)C1` (stereo not shown) [Ex. 6.157]: 21 nM and 70 nM.
Consider `COc1ccccc1-c1sc(C)nc1C(=O)N1CC[C@H](C)[C@H]1c1nc2c(Cl)cccc2[nH]1` [Ex. 4.129], for which the IC50 at human orexin-2 receptor stood at 2750 nM; on human orexin-1 receptor it was 35 nM.
The like results for `C=C1C[C@@H](c2nc3cc(Cl)c(C(F)(F)F)cc3[nH]2)N(C(=O)c2nc(C)ccc2-n2nccn2)C1` [Ex. 6.190] were, in that order, 9 nM and 10 nM.
`CO[C@H]1CN(C(=O)c2cc(C)ccc2-n2nccn2)C(C)(c2nc3c(C)c(Cl)ccc3[nH]2)C1` (stereo partly shown) [Ex. 3.25]: the half-maximal inhibitory concentration (IC50) on human orexin-2 receptor was determined as 7 nM; at human orexin-1 receptor, 5 nM.
As to `CCn1c([C@]2(C)CCCN2C(=O)c2cc(C)ccc2-c2cccc(C)c2)nc2cc(C)c(C)cc21` [Ex. 7.27], the figures for the half-inhibitory concentration (IC50) on human orexin-2 receptor and at human orexin-1 receptor were 17 nM and 23 nM, respectively.
The like results for `Cc1nc(C(=O)N2CCC[C@H]2c2nc3c(O)cccc3[nH]2)c(-c2cccc(Cl)c2)s1` [Ex. 1.12] were, in that order, 344 nM and 273 nM.
The matching figures for `CO[C@H]1CN(C(=O)c2cc(Cl)ccc2-n2nccn2)C(C)(c2nc3c(C)c(Cl)ccc3[nH]2)C1` (stereo partly shown) [Ex. 3.44]: 6 nM and 3 nM.
The like results for `C=C1C[C@@H](c2nc3ccc(Cl)c(C)c3[nH]2)N(C(=O)c2nc(C)sc2-c2ccc(Cl)cc2)C1` [Ex. 6.119] were, in that order, 3 nM and 14 nM.
As to `Cc1ccc(-n2nccn2)c(C(=O)N2CCC[C@@]2(C)c2nc3cc(C(F)(F)F)c(Cl)cc3[nH]2)c1F` [Ex. 5.134], the IC50 is 20 nM on human orexin-2 receptor and 8 nM on human orexin-1 receptor.
As for `COc1ccc(-c2sc(C)nc2C(=O)N2CC[C@H](C)[C@H]2c2nc3cc(OC)c(OC)cc3[nH]2)cn1` [Ex. 4.53], the figures for the IC50 on human orexin-2 receptor and at human orexin-1 receptor were 4440 nM and 111 nM, respectively.
The matching figures for `Cc1nc(C(=O)N2CCCC2c2nc3cc(C(F)(F)F)c(F)cc3[nH]2)c(-c2cccc(Cl)c2)s1` (stereo not shown) [Ex. 1.111]: 243 nM and 32 nM.
The like results for `Cc1ccc(-n2nccn2)c(C(=O)N2CCC[C@@]2(C)c2nc3cc(F)c(Br)cc3[nH]2)c1` [Ex. 5.23] were, in that order, 80 nM and 15 nM.
Consider `C[C@@]1(c2nc3cc(C(F)(F)F)ccc3[nH]2)CCCN1C(=O)c1ccccc1-n1nccn1` [Ex. 5.167], for which the IC50 at human orexin-2 receptor worked out at 351 nM; at human orexin-1 receptor it was 91 nM.
The matching figures for `CSc1ccc2nc([C@@H]3CCCN3C(=O)c3cncnc3-c3ccc(Cl)c(Cl)c3)[nH]c2c1` [Ex. 1.52]: 121 nM and 737 nM.
The like results for `C=C1C[C@@H](c2nc3cccc(C)c3[nH]2)N(C(=O)c2nc(C)sc2-c2cccc(C(F)(F)F)c2)C1` [Ex. 6.112] were, in that order, 0.7 nM and 15 nM.
The like results for `Cc1nc(C(=O)N2CCCC2c2nc3cc(Br)ccc3[nH]2)c(-c2ccccc2)s1` (stereo not shown) [Ex. 1.120] were, in that order, 557 nM and 147 nM.
In the case of `C=C1C[C@@H](c2nc3ccc(Cl)c(C)c3[nH]2)N(C(=O)c2cc(OC)ccc2-n2nccn2)C1` [Ex. 6.131], the IC50 on human orexin-2 receptor worked out at 0.5 nM; on human orexin-1 receptor, 9 nM.
The like results for `Cc1ccc(-c2ccccc2C(=O)N2CC[C@H](C)[C@H]2c2nc3cc(Cl)c(C)cc3[nH]2)cc1` [Ex. 4.77] were, in that order, 790 nM and 5 nM.
The matching figures for `COc1ccccc1-c1ccc(C)cc1C(=O)N1CCC[C@@]1(C)c1nc2cc(C(F)(F)F)ccc2[nH]1` [Ex. 5.185]: 283 nM and 91 nM.
The matching figures for `Cc1nc(C(=O)N2CCCC2c2nc3c(C)c(C)ccc3[nH]2)c(-c2cccc(Cl)c2)s1` (stereo not shown) [Ex. 1.115]: 19 nM and 37 nM.
As for `Cc1ccc(C(=O)N2CCC[C@@]2(C)c2nc3cc(OC(F)(F)F)ccc3[nH]2)c(-c2ccccn2)c1` [Ex. 5.240], the values for the 50% inhibitory concentration (IC50) on human orexin-2 receptor and at human orexin-1 receptor were 232 nM and 38 nM, respectively.
The like results for `Cc1ccc(-c2cccnc2)c(C(=O)N2CC[C@H](C)[C@H]2c2nc3c(C)c(Cl)ccc3[nH]2)c1F` [Ex. 4.173] were, in that order, 6330 nM and 13 nM.
For the compound `Cc1ccc(-n2nccn2)c(C(=O)N2CCC[C@@]2(C)c2nc3cc(Cl)c(C)cc3[nH]2)c1` [Ex. 5.15], the half-maximal inhibitory concentration (IC50) at human orexin-2 receptor was 22 nM; at human orexin-1 receptor it was 5 nM.
With `C=C1CC(c2nc3cc(SC)ccc3[nH]2)N(C(=O)c2nc(C3CC3)sc2-c2cccc(C)c2)C1` (stereo not shown) [Ex. 6.88], the IC50 at human orexin-2 receptor is 15 nM; on human orexin-1 receptor, 20 nM.
The like results for `Cc1ccc(C(=O)N2CC[C@H](C)[C@H]2c2nc3cc(Cl)c(C)cc3[nH]2)c(-n2nccn2)c1` [Ex. 4.72] were, in that order, 51 nM and 4 nM.
The matching figures for `Cc1ccc(-c2sc(C)nc2C(=O)N2CC[C@H](C)[C@H]2c2nc3c(Cl)cccc3[nH]2)cc1` [Ex. 4.124]: 591 nM and 8 nM.
The like results for `Cc1ccc(-n2nccn2)c(C(=O)N2C[C@H](F)C[C@H]2c2nc3c(C)c(Cl)ccc3[nH]2)c1` [Ex. 2.5] were, in that order, 12 nM and 6 nM.
With `CO[C@H]1CN(C(=O)c2nc(C)sc2-c2cccc(Cl)c2)C(C)(c2nc3c(C)c(Cl)ccc3[nH]2)C1` (stereo partly shown) [Ex. 3.27], the IC50 on human orexin-2 receptor is 16 nM; on human orexin-1 receptor it was 5 nM.
The matching figures for `C=C1C[C@@H](c2nc3c(SC)cccc3[nH]2)N(C(=O)c2nc(C)sc2-c2ccc(C)c(C)c2)C1` [Ex. 6.49]: 1 nM and 3 nM.
The like results for `Cc1ccc(-c2nc(C(=O)N3CCC[C@@]3(C)c3nc4c(C)c(Cl)ccc4[nH]3)c(-c3ccc(F)cc3)s2)c(F)c1` [Ex. 5.253] were, in that order, 1190 nM and 12 nM.
The matching figures for `Cc1ccc(-c2cccc(C(F)(F)F)c2)c(C(=O)N2CCC[C@@]2(C)c2nc3cc(C(F)(F)F)c(Cl)cc3[nH]2)c1` [Ex. 5.155]: 249 nM and 134 nM.
In the case of `C=C1CN(C(=O)c2nc(C)sc2-c2ccc(C)cc2)C(C)(c2nc3cc(OC)ccc3[nH]2)C1` (stereo not shown) [Ex. 6.148], the IC50 on human orexin-2 receptor worked out at 40 nM; on human orexin-1 receptor, 19 nM.
The like results for `Cc1ccc(-n2nccn2)c(C(=O)N2C[C@@H](F)C[C@H]2c2nc3ccc(Cl)c(C)c3[nH]2)c1` [Example 2.1, ((2S,4S)-2-(6-chloro-7-methyl-1H-benzo[d]imidazol-2-yl)-4-fluoropyrrolidin-1-yl)(5-methyl-2-(2H-1,2,3-triazol-2-yl)phenyl)methanone] were, in that order, 53 nM and 56 nM.
The like results for `Cc1ccc(-n2cccn2)c(C(=O)N2CC[C@H](C)[C@H]2c2nc3c(C)cc(Cl)cc3[nH]2)c1` [Ex. 4.95] were, in that order, 1170 nM and 28 nM.
As to `C=C1C[C@@H](c2nc3ccc(Cl)c(C)c3[nH]2)N(C(=O)c2nc(C)ccc2-n2nccn2)C1` [Ex. 6.127], the half-inhibitory concentration (IC50) on human orexin-2 receptor stood at 4 nM; on human orexin-1 receptor it was 17 nM.
The like results for `Cc1ccc(C(=O)N2CCC[C@@]2(C)c2nc3cc(F)c(Br)cc3[nH]2)c(-n2nccn2)c1` [Ex. 5.130] were, in that order, 58 nM and 24 nM.
The matching figures for `COc1cccc(-c2sc(C)nc2C(=O)N2CC[C@H](C)[C@H]2c2nc3c(Cl)cccc3[nH]2)c1` [Ex. 4.121]: 475 nM and 6 nM.
